{
  "source": "patent US20230322805A1",
  "about": "“NOVEL PYRIMIDODIAZEPINE DERIVATIVES OR USES THEREOF” (SPARK BIOPHARMA, INC., priority 2020, published 2023)",
  "key": {"tau P301L": {"tested_on": "tau P301L", "test": "Level of aggregation-prone mutant protein after treatment", "format": "cell-based", "settings": "SB1617 treatment", "source_text": "(§1) Plasmids pRK5-EGFP-Tau (#46904) and pRK-EGFP-Tau P301 L (#46908) were purchased from Addgene. Plasmids pCMV-SOD1-EGFP and pCMV-SOD1 G93A-EGFP were provided by Seoul National University College of Medicine. Plasmids were transfected in HEK293T cells using Lipofectamine and Opti-MEM (Gibco) based on the manufacturer's instructions. Short interfering RNA duplex (siRNA duplex, BIONEER) for PDIA3 and DNAJC3 was used for PDIA3 and DNAJC3 knockdown experiments. siRNA oligonucleotides were transfected in HEK293 cells stably expressing BiFC-tau using Lipofectamine RNAiMAX (ThermoFisher Scientific) and Opti-MEM (Gibco) based on the manufacturer's instructions.\n(§2) 5-6. From the results of Test Examples 5-1 to 5-5, it was hypothesized that if SB1617, a pyrimidiazepine derivative from this invention, regulates protein homeostasis, it will be able to effectively control the level of other proteins that tend to be folded and accumulated incorrectly under ER stress conditions. To confirm this, changes in the level of other aggregation-oriented proteins according to SB1617 treatment were confirmed.\n(§3) Tau P301 L is found in FTD patients with Parkinson's disease and is known to accelerate tau aggregation and accumulation in the mouse brain. Htt-Q74 refers to a polyglutamine dilated mutation that causes Huntington's disease. The SOD1 (G93A) mutation level is one of the clinical characteristics of ALS patients."}, "SOD1 (G93A)": {"tested_on": "SOD1 (G93A)", "test": "Level of aggregation-prone mutant protein after treatment", "format": "cell-based", "settings": "SB1617 treatment", "source_text": "as §1, §2, §3"}, "Htt-Q74": {"tested_on": "Htt-Q74", "test": "Level of aggregation-prone mutant protein after treatment", "format": "cell-based", "settings": "SB1617 treatment"}, "PDIA3": {"target": "T1, PDIA3 (Homo sapiens, UniProt P30101)", "T1 sequence (P30101 25-505)": "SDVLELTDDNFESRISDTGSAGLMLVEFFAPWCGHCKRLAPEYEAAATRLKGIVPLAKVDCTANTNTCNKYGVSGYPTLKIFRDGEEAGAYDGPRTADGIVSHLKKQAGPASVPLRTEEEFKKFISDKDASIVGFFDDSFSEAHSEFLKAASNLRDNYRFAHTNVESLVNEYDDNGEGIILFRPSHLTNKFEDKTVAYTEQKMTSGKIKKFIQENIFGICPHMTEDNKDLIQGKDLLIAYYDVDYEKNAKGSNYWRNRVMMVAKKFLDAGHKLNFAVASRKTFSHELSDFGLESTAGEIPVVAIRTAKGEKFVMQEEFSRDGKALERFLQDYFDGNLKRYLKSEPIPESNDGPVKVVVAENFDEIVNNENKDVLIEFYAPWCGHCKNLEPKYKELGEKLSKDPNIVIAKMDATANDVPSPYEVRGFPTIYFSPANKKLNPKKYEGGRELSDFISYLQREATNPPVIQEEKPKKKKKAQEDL", "test": "CETSA and pull-down assay with probe SB1624", "format": "binding", "parameters": "endogenous in cells; host or cells: HEK293 BiFC-tau cells (TS-FITGE, CETSA, PEG-maleimide assay); SH-SY5Y cells (pull-down with probe SB1624)", "settings": "CETSA 10 μM in HEK293 BiFC-tau cells; pull-down 5 μM SB1624 with or without 40 μM SB1617 in SH-SY5Y cells", "protocol": "HEK293 BiFC-tau cells were treated with DMSO (0.1%) and a compound according to the present invention (10 μM) in the presence of thapsigargin (200 nM) for 3 hours. The cell suspension was heated at the indicated temperature range for 3 minutes and then at 25° C. for 3 minutes. The heated cells were washed with PBS and resuspended in Lysis Buffer A. For cell lysis, cell suspensions were freeze-thawed in liquid nitrogen three times. The cell lysate was washed by centrifugation at 20000 g, 4° C. for 20 minutes. Equal volumes of washed cell lysate were combined with SDS buffer and subjected to immunoblotting.\nSH-SY5Y cells were seeded in 6-well plates and then treated with 1 μM thapsigargin and 5 μM SB1624 (probe compound) for 2.5 hours with or without 40 μM SB1617. Cells were exposed to 356 nm UV irradiation for 30 min on ice. After washing with cold PBS, cells were lysed in RIPA buffer and removed by centrifugation at […] for 15 minutes at 4° C. The protein concentration of the supernatant was determined by Pierce BCA Protein Assay Kit and the protein concentration was adjusted to 1 mg/mL. […] Proteins were eluted by boiling with 3×SDS sample buffer and analyzed by SDS-PAGE and Western blot. […]"}},
  "data": [
    {"smiles": "CN(Cc1ccc(Cl)cc1)c1ncnc2c1[C@@H]1OC[C@H](CN2)N1S(=O)(=O)c1ccc([N+](=O)[O-])cc1", "note": "[Compound 117]", "values": [
      {"measurement": "mutation level of tau P301L", "setting": "tau P301L", "result": "downregulated"},
      {"measurement": "mutation level of SOD (G93A)", "setting": "SOD1 (G93A)", "result": "downregulated"},
      {"measurement": "mutation level of Htt-Q74", "setting": "Htt-Q74", "result": "downregulated"},
      {"measurement": "specific binding (CETSA, pull-down)", "setting": "PDIA3", "result": "specifically binds"}
    ]}
  ]
}
